Where two headings read alike, the source gives them in different places.
Tested on: amyloid β production in transfected H4 (human neuroglioma) cells stably expressing APP constructs
Test: In vitro cell-based assay of inhibitors of amyloid β production (ELISA)
Settings: transfected H4 cells stably expressing APP constructs, approximately 16 hours incubation, amyloid β in medium by ELISA, read-out: ACTIVITY (IC50, inhibition of amyloid β production)
In short: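 Transfected H4 cells stably expressing wild-type or variant APP were exposed to compounds (initial screen 10-100 μM) for about 16 h. Secreted Aβ in the medium was quantified by sandwich ELISA (C-terminal-specific monoclonal capture, N-terminal-specific polyclonal detection) against an Aβ standard curve; dose-response runs followed for actives.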

Structure (SMILES)	IC50	also measured
C[C@H](CCCCN1CCC(CS(C)(=O)=O)CC1)N(c1cc(Cl)ccc1Cl)S(=O)(=O)c1ccc(Cl)cc1 [Example 1150, 4-chloro-N-(2,5-dichlorophenyl)-N-[5-[[4-(methylsulfonyl)methyl]-1-piperidinyl]-1(R)-methylpentyl]benzenesulfonamide]	100 to 500 nM	–
C[C@H](CCN1CCCC(CS(C)(=O)=O)C1)N(c1cc(Cl)ccc1Cl)S(=O)(=O)c1ccc(Cl)cc1 (stereo partly drawn) [Example 1151, 4-chloro-N-(2,5-dichlorophenyl)-N-[3-[(3-(methylsulfonyl)methyl]-1-piperidinyl]-1(R)-methylpropyl)benzenesulfonamide]	100 to 500 nM	–
CC(CCCN)N(c1cc(Cl)ccc1Cl)S(=O)(=O)c1ccc(Cl)cc1 (centres unmarked) [Example 1152]	100 to 500 nM	–
CSC1CCCN(CCC[C@@H](C)N(c2cc(Cl)ccc2Cl)S(=O)(=O)c2ccc(Cl)cc2)C1 (stereo partly drawn) [Example 1153, 4-chloro-N-(2,5-dichlorophenyl)-N-[4-[(3-methylthio)-1-piperidinyl]-1(R)-methylbutyl]benzenesulfonamide]	100 to 500 nM	–
C[C@H](CCCNC(=O)Oc1ccccc1)N(c1cc(Cl)ccc1Cl)S(=O)(=O)c1ccc(Cl)cc1 [Example 1154, 4-chloro-N-(2,5-dichlorophenyl)-N-[4-[[(phenoxy)carbonyl]amino]-1-methylbutyl]benzenesulfonamide]	–	IC50 (Homo sapiens): 100 to 500 nM
C[C@H](CCCNC(=O)OCc1ccccc1)N(c1cc(Cl)ccc1Cl)S(=O)(=O)c1ccc(Cl)cc1 [Example 1155, 4-chloro-N-(2,5-dichlorophenyl)-N-[4-[[(benzoxy)carbonyl]amino]-1-methylbutyl]benzenesulfonamide]	–	IC50 (Homo sapiens, 16 h): 100 to 500 nM
CSC1CCN(CC[C@@H](C)N(c2cc(Cl)ccc2Cl)S(=O)(=O)c2ccc(Cl)cc2)CC1 [Example 1156, 4-chloro-N-(2,5-dichlorophenyl)-N-[3-[(4-methylthio)-1-piperidinyl]-1(R)-methylpropyl]benzenesulfonamide]	100 to 500 nM	–
C[C@H](CCCN1CCC(CS(C)(=O)=O)CC1)N(c1cc(Cl)ccc1Cl)S(=O)(=O)c1ccc(Cl)cc1 [Example 1157, 4-chloro-N-(2,5-dichlorophenyl)-N-[4-[[4-(methylsulfonyl)methyl]-1-piperidinyl]-1(R)-methylbutyl)benzenesulfonamide]	100 to 500 nM	–
C[C@H](CCCN(c1cc(Cl)ccc1Cl)S(=O)(=O)c1ccc(Cl)cc1)N(c1cc(Cl)ccc1Cl)S(=O)(=O)c1ccc(Cl)cc1 [Example 1158, 4-chloro-N-(2,5-dichlorophenyl)-N-[4-[N-(2,5-dichlorophenyl)-N-[(4-chlorophenyl)sulfonyl]amino]-1(R)-methylbutyl]benzenesulfonamide]	–	IC50 (Homo sapiens, 16 h): > 500 nM
CSC1CCCN(CC[C@@H](C)N(c2cc(Cl)ccc2Cl)S(=O)(=O)c2ccc(Cl)cc2)C1 (some centres unmarked) [Example 1159]	> 500 nM	–
CC[S+]([O-])CCC[C@@H](C)N(c1cc(Cl)ccc1F)S(=O)(=O)c1ccc(Cl)cc1 (stereo partly drawn) [Example 1160, 4-chloro-N-(5-chloro-2-fluorophenyl)-N-[1(R)-methyl-(4-ethylsulfinyl)butyl]benzenesulfonamide]	≤ 25 nM	–
CC(C)S(=O)(=O)CCC[C@@H](C)N(c1cc(Cl)ccc1Cl)S(=O)(=O)c1ccc(Cl)cc1 [Example 1161]	≤ 25 nM	–
C[C@H](CCCS(C)(=O)=O)N(c1cc(Cl)ccc1Cl)S(=O)(=O)c1ccc(Cl)cc1 [Example 1162, 4-chloro-N-[2,5-dichlorophenyl]-N-[1(R)-methyl-(4-methylsulfonyl]butyl]benzenesulfonamide]	≤ 25 nM	–
CCS(=O)(=O)CCC[C@@H](C)N(c1cc(Cl)ccc1F)S(=O)(=O)c1ccc(Cl)cc1 [Example 1163, 4-chloro-N-[5-chloro-2-fluorophenyl]-N-[1(R)-methyl-(4-ethylsulfonyl)butyl]benzenesulfonamide]	≤ 25 nM	–
CCS(=O)(=O)CCC[C@@H](C)N(c1cc(Cl)ccc1Cl)S(=O)(=O)c1ccc(Cl)cc1 [Example 1164, 4-chloro-N-[2,5-dichlorophenyl]-N-[1(R)-methyl-(4-ethylsulfonyl]butyl]benzenesulfonamide]	≤ 25 nM	–
C[C@H](CCCS(C)(=O)=O)N(c1cc(Cl)ccc1F)S(=O)(=O)c1ccc(Cl)cc1 [Example 1165, 4-chloro-N-[5-chloro-2-fluorophenyl]-N-[1(R)-methyl-(4-methylsulfonyl)butyl]benzenesulfonamide]	≤ 25 nM	–
CCS(=O)(=O)CCC[C@@H](C)N(c1cc(F)ccc1F)S(=O)(=O)c1ccc(Cl)cc1 [Example 1166, 4-chloro-N-[2,5-difluorophenyl]-N-[1(R)-methyl-(4-ethylsulfonyl)butyl]benzenesulfonamide]	≤ 25 nM	–
C[C@H](CCC[S+](C)[O-])N(c1cc(Cl)ccc1F)S(=O)(=O)c1ccc(Cl)cc1 (stereo partly drawn) [Example 1167, 4-chloro-N-[5-chloro-2-fluorophenyl]-N-[1(R)-methyl-(4-methylsulfinyl)butyl]benzenesulfonamide]	≤ 25 nM	–
CC(C)[S+]([O-])CCC[C@@H](C)N(c1cc(Cl)ccc1Cl)S(=O)(=O)c1ccc(Cl)cc1 (some centres unmarked) [Example 1169]	≤ 25 nM	–

Structure (SMILES)	IC50	also measured
C[C@H](CCCS(C)(=O)=O)N(c1cc(F)ccc1F)S(=O)(=O)c1ccc(Cl)cc1 [Example 1170, 4-chloro-N-[2,5-difluorophenyl]-N-[1(R)-methyl-(4-methylsulfonyl)butyl]benzenesulfonamide]	≤ 25 nM	–
C[C@H](CCC[S+](C)[O-])N(c1cc(Cl)ccc1Cl)S(=O)(=O)c1ccc(Cl)cc1 (stereo partly drawn) [Example 1171, 4-chloro-N-[2,5-dichlorophenyl]-N-[1(R)-methyl-(4-methylsulfinyl)butyl]benzenesulfonamide]	≤ 25 nM	–
CC[S+]([O-])CCC[C@@H](C)N(c1cc(Cl)ccc1Cl)S(=O)(=O)c1ccc(Cl)cc1 (stereo partly drawn) [Example 1172, 4-chloro-N-[2,5-dichlorophenyl]-N-[1(R)-methyl-(4-ethylsulfinyl)butyl]benzenesulfonamide]	≤ 25 nM	–
CC[S+]([O-])CCCC[C@@H](C)N(c1cc(Cl)ccc1Cl)S(=O)(=O)c1ccc(Cl)cc1 (stereo partly drawn) [Example 1173, 4-chloro-N-[2,5-dichlorophenyl]-N-[1(R)-methyl-(5-ethylsulfinyl)pentyl]benzenesulfonamide]	≤ 25 nM	–
CC[S+]([O-])CCC[C@@H](C)N(c1cc(F)ccc1F)S(=O)(=O)c1ccc(Cl)cc1 (stereo partly drawn) [Example 1174, 4-chloro-N-[2,5-difluorophenyl]-N-[1(R)-methyl-(4-ethylsulfinyl)butyl]benzenesulfonamide]	≤ 25 nM	–
C[C@H](CCC[S+](C)[O-])N(c1cc(F)ccc1F)S(=O)(=O)c1ccc(Cl)cc1 (stereo partly drawn) [Example 1175, 4-chloro-N-[2,5-difluorophenyl]-N-[1(R)-methyl-(4-methylsulfinyl)butyl]benzenesulfonamide]	≤ 25 nM	–
CSCCC[C@@H](C)N(c1cc(Cl)ccc1Cl)S(=O)(=O)c1ccc(Cl)cc1 [Example 1176, 4-chloro-N-[2,5-dichlorophenyl]-N-[1(R)-methyl-(4-methylthio)butyl]benzenesulfonamide]	≤ 25 nM	–
CCSCCC[C@@H](C)N(c1cc(F)ccc1F)S(=O)(=O)c1ccc(Cl)cc1 [Example 1177, 4-chloro-N-[2,5-difluorophenyl]-N-[1(R)-methyl-(4-ethylthio)butyl]benzenesulfonamide]	≤ 25 nM	–
CSCCC[C@@H](C)N(c1cc(Cl)ccc1F)S(=O)(=O)c1ccc(Cl)cc1 [Example 1178, 4-chloro-N-[5-chloro-2-fluorophenyl]-N-[1(R)-methyl-(4-methylthio)butyl]benzenesulfonamide]	≤ 25 nM	–
CC(C)[S+]([O-])CCC[C@@H](C)N(c1cc(F)ccc1F)S(=O)(=O)c1ccc(Cl)cc1 (some centres unmarked) [Example 1179]	≤ 25 nM	–
CCS(=O)(=O)CC[C@@H](C)N(c1cc(Cl)ccc1Cl)S(=O)(=O)c1ccc(Cl)cc1 [Example 1180, 4-chloro-N-[2,5-dichlorophenyl]-N-[1(R)-methyl-(3-ethylsulfonyl)propyl]benzenesulfonamide]	≤ 25 nM	–
C[C@H](CCSCC(=O)O)N(c1cc(Cl)ccc1Cl)S(=O)(=O)c1ccc(Cl)cc1 [Example 1181, (6R)-6-[(2,5-dichlorophenyl)-[(4-chlorophenyl)sulfonyl]-amino]-3-thioheptanoic acid]	≤ 25 nM	–
CC(C)C[S+]([O-])CCC[C@@H](C)N(c1cc(Cl)ccc1Cl)S(=O)(=O)c1ccc(Cl)cc1 (some centres unmarked) [Example 1182]	≤ 25 nM	–
CCSCCC[C@@H](C)N(c1cc(Cl)ccc1Cl)S(=O)(=O)c1ccc(Cl)cc1 [Example 1183, 4-chloro-N-[2,5-dichlorophenyl]-N-[1(R)-methyl-(4-ethylthio)butyl]benzenesulfonamide]	≤ 25 nM	–
CC(C)CS(=O)(=O)CCC[C@@H](C)N(c1cc(Cl)ccc1Cl)S(=O)(=O)c1ccc(Cl)cc1 [Example 1184]	25 to 50 nM	–
CC[C@H](CSCC(=O)O)N(c1cc(Cl)ccc1Cl)S(=O)(=O)c1ccc(Cl)cc1 [Example 1186, (5R)-5-[(2,5-dichlorophenyl)-[(4-chlorophenyl)sulfonyl]-amino]-3-thioheptanoic acid]	25 to 50 nM	–
COC(=O)C[S+]([O-])CC[C@@H](C)N(c1cc(Cl)ccc1Cl)S(=O)(=O)c1ccc(Cl)cc1 (stereo partly drawn) [Example 1187, methyl(6R)-6-[(2,5-dichlorophenyl)-[(4-chlorophenyl)sulfonyl]-amino]-3-thioheptanoic acid, 3-oxide]	50 to 100 nM	–
CC(C)CSCCC[C@@H](C)N(c1cc(Cl)ccc1Cl)S(=O)(=O)c1ccc(Cl)cc1 [Example 1188]	100 to 500 nM	–
CCSCC[C@@H](C)N(c1cc(Cl)ccc1Cl)S(=O)(=O)c1ccc(Cl)cc1 [Example 1189, 4-chloro-N-[2,5-dichlorophenyl]-N-[1(R)-methyl-(3-ethylthio)propyl]benzenesulfonamide]	100 to 500 nM	–
